Assay results from ChEMBL document CHEMBL1127476, “3-substituted thieno[2,3-b][1,4]thiazine-6-sulfonamides. A novel class of topically active carbonic anhydrase inhibitors” (J Med Chem, 1994).
In brackets after ≈: the same amount, converted by molar mass.

Legend:
[1] = The pKa value in 30% EtOH/H2O; assay type: physicochemical
Carbonic anhydrase 2 [2] = biological target: T1, Carbonic anhydrase 2 (Homo sapiens, UniProt P00918)
Description: Tested for ability to inhibit human erythrocyte carbonic-anhydrase-II- (HCA II) catalyzed carbon dioxide hydration

Carbonic anhydrase 2 [3] = biological target: T1, Carbonic anhydrase 2; remark: listed apart in the source
Description: Tested for ability to compete with dansylamide for binding to human erythrocyte carbonic-anhydrase-II (HCA-II)

Oryctolagus cuniculus [4] = species: Oryctolagus cuniculus
Description: Reduction of the elevated intraocular pressure (IOP) in alpha-chymotrypsin treated albino rabbit

Oryctolagus cuniculus [5] = species: Oryctolagus cuniculus; remark: listed apart in the source
Description: Change in intraocular pressure (IOP) was measured in the normotensive pigmented rabbit

Oryctolagus cuniculus [6] = species: Oryctolagus cuniculus; remark: listed apart in the source
Description: Change in intraocular pressure (IOP) was measured in the normotensive pigmented rabbit in presence of MK-927

physchem = settings: pH 5.2 buffer, pH 5.2, Solubility
[7] = buffer, pH 5.2
Description: Solubility in pH 5.2 buffer

**Q.** With COCCN(CCOC)CCC1CNc2cc(S(N)(=O)=O)sc2S1(=O)=O (configuration not stated) as the molecule, how does the pKa [1] read?
**A.** 6.4

**Q.** And the IC50 (Carbonic anhydrase 2 [2])?
**A.** 2.14 nM

**Q.** And the Ki (Carbonic anhydrase 2 [3])?
**A.** 0.97 nM

**Q.** What about the “Delta IOP” value (Oryctolagus cuniculus [4]) of the same molecule?
**A.** 4 mmHg

**Q.** What about the “Delta IOP” value (Oryctolagus cuniculus [5]) of the same molecule?
**A.** -4.1 mmHg

**Q.** What about the “Delta IOP” value (Oryctolagus cuniculus [6]) of the same molecule?
**A.** -5.1 mmHg

**Q.** What about the solubility (physchem) of the same molecule?
**A.** > 6700 µg/mL

**Q.** For COCCOCCN(CCOC)C(=O)CC1C(=O)Nc2cc(S(N)(=O)=O)sc2S1(=O)=O (configuration not stated), which IC50 (Carbonic anhydrase 2 [2]) is on record?
**A.** 2.18 nM

**Q.** And the Ki (Carbonic anhydrase 2 [3])?
**A.** 3.6 nM

**Q.** For NS(=O)(=O)c1cc2c(s1)SCC(=O)N2, which IC50 (Carbonic anhydrase 2 [2]) is on record?
**A.** 12.8 nM

**Q.** What about the Ki (Carbonic anhydrase 2 [3]) of the same molecule?
**A.** 24 nM

**Q.** Which pKa [1] does the source give for NS(=O)(=O)c1cc2c(s1)S(=O)(=O)C(CCO)CN2 (configuration not stated) here?
**A.** 8.45

**Q.** And the IC50 (Carbonic anhydrase 2 [2])?
**A.** 1.9 nM

**Q.** And the Ki (Carbonic anhydrase 2 [3])?
**A.** 1.19 nM

**Q.** What about the solubility (physchem) of the same molecule?
**A.** 4500 µg/mL (≈ 14.4 mM)

**Q.** For NS(=O)(=O)c1cc2c(s1)S(=O)(=O)CCN2, which pKa [1] is on record?
**A.** 8.8

**Q.** What about the IC50 (Carbonic anhydrase 2 [2]) of the same molecule?
**A.** 2.46 nM

**Q.** What about the Ki (Carbonic anhydrase 2 [3]) of the same molecule?
**A.** 3.36 nM

**Q.** And the solubility (physchem)?
**A.** 190 µg/mL (≈ 0.708 mM)

**Q.** Which results are given for COCCOCCN(CCOC)CCC1CNc2cc(S(N)(=O)=O)sc2S1(=O)=O (configuration not stated)?
**A.** pKa [1]: 6.55; IC50 (Carbonic anhydrase 2 [2]): 1.45 nM; Ki (Carbonic anhydrase 2 [3]): 4.14 nM; Delta IOP (Oryctolagus cuniculus [4]): 6 mmHg; Delta IOP (Oryctolagus cuniculus [5]): -1.6 mmHg; Delta IOP (Oryctolagus cuniculus [6]): -5.3 mmHg; solubility (physchem): 11800 µg/mL (≈ 25 mM)

**Q.** What does the source list for NS(=O)(=O)c1cc2c(s1)SC(CC(=O)O)C(=O)N2 (configuration not stated)?
**A.** pKa [1]: 4.3; Ki (Carbonic anhydrase 2 [3]): 47.5 nM; solubility (physchem): 2400 µg/mL (≈ 7.78 mM)

**Q.** For CC(C)CNC(=O)CC1Sc2sc(S(N)(=O)=O)cc2NC1=O (configuration not stated), which pKa [1] is on record?
**A.** 3.65

**Q.** What about the solubility (physchem) of the same molecule?
**A.** 30 µg/mL (≈ 0.0825 mM)

**Q.** With NS(=O)(=O)c1cc2c(s1)S(=O)(=O)C1(CC1)CN2 as the molecule, how does the pKa [1] read?
**A.** 8.29

**Q.** And the IC50 (Carbonic anhydrase 2 [2])?
**A.** 2 nM

**Q.** What about the Ki (Carbonic anhydrase 2 [3]) of the same molecule?
**A.** 10.9 nM

**Q.** And the solubility (physchem)?
**A.** 520 µg/mL (≈ 1.77 mM)

**Q.** With NS(=O)(=O)c1cc2c(s1)SC(CCO)CN2 (configuration not stated) as the molecule, how does the pKa [1] read?
**A.** 9.62

**Q.** What about the solubility (physchem) of the same molecule?
**A.** 640 µg/mL (≈ 2.28 mM)

**Q.** For NS(=O)(=O)c1cc2c(s1)S(=O)(=O)C(CCN1CCOCC1)CN2 (configuration not stated), which pKa [1] is on record?
**A.** 3.23

**Q.** And the “Delta IOP” value (Oryctolagus cuniculus [4])?
**A.** 5 mmHg

**Q.** What about the “Delta IOP” value (Oryctolagus cuniculus [5]) of the same molecule?
**A.** -2.8 mmHg

**Q.** And the “Delta IOP” value (Oryctolagus cuniculus [6])?
**A.** -4.4 mmHg

**Q.** What about the solubility (physchem) of the same molecule?
**A.** 2100 µg/mL (≈ 5.5 mM)

**Q.** What does the source list for COCCOCCN(CCOC)CCC1C(=O)Nc2cc(S(N)(=O)=O)sc2S1(=O)=O (configuration not stated)?
**A.** IC50 (Carbonic anhydrase 2 [2]): 5.15 nM; Ki (Carbonic anhydrase 2 [3]): 4.14 nM

**Q.** Which results are given for NS(=O)(=O)c1cc2c(s1)S(=O)(=O)CC(=O)N2?
**A.** pKa [1]: 7.43; IC50 (Carbonic anhydrase 2 [2]): 3.7 nM; Ki (Carbonic anhydrase 2 [3]): 2.9 nM; solubility (physchem): 600 µg/mL (≈ 2.13 mM)

**Q.** Which pKa [1] does the source give for CC(C)CNCCC1CNc2cc(S(N)(=O)=O)sc2S1(=O)=O (configuration not stated) here?
**A.** 8.18

**Q.** And the IC50 (Carbonic anhydrase 2 [2])?
**A.** 2.9 nM

**Q.** What about the Ki (Carbonic anhydrase 2 [3]) of the same molecule?
**A.** 4.05 nM

**Q.** What about the “Delta IOP” value (Oryctolagus cuniculus [4]) of the same molecule?
**A.** -4.5 mmHg

**Q.** What about the “Delta IOP” value (Oryctolagus cuniculus [5]) of the same molecule?
**A.** -2.1 mmHg

**Q.** And the “Delta IOP” value (Oryctolagus cuniculus [6])?
**A.** -6.2 mmHg

**Q.** And the solubility (physchem)?
**A.** 24000 µg/mL (≈ 65.3 mM)

**Q.** For CC(C)CN[C@H]1CCS(=O)(=O)c2sc(S(N)(=O)=O)cc21 (stereo in doubt; form 1) [SEZOLAMIDE], which solubility [7] is on record?
**A.** > 16000 µg/mL

**Q.** Which solubility [7] does the source give for CC(C)CN[C@H]1CCS(=O)(=O)c2sc(S(N)(=O)=O)cc21 (stereo in doubt; form 2) [SEZOLAMIDE] here?
**A.** 33000 µg/mL (≈ 97.5 mM)
